According to patent US7258861B2, “TNF-derived peptides for use in treating oedema” (Innogenetics N.V., priority 2001, dated 2007):
Several values for one entry are separate records, joined by “and”; a condition that tells them apart may be missing. Equal values may be shown once. Values belong to the molecule of their own block, whether it stands above or below them. Positions of bridges follow the written chain, without caps; N, C: chain ends. Residues, ends and D or L forms follow the SMILES beside them. No end group written: not given here. *: point of attachment. Biotin = O=C1N[C@H]2[C@H](CS[C@H]2CCCCC(=O)*)N1

Columns and labels:
[1] = test system: ex vivo instilled rat lung; assay: Ex vivo rat flooded lung, model of hydrostatic edema; conditions: for clearing alveolar fluid content ex vivo: after intratracheal instillation; for clearing alveolar fluid content ex vivo / activity in fluid clearance: summary in words
Protocol: In this model edema is induced by instillating 2 ml of 0.9% NaCl solution intratracheally. Alternatively, edema formation can be modulated by varying the height of the venous outflow and the perfusion buffer containing reservoir, or alternatively by varying the time the lung is exposed to the elevated pressure. […] The clearance of alveolar fluid from the lung is calculated by means of measuring the concentration of HSA, which is added to the instillate over time. Alternatively, the over time weight loss as a measure of edema resorption (high weight loss is high liquid clearance), of the artificially instilled lung can be measured. The lung tidal volume, compliance and weight are monitored continuously during the experiment. At the end of the experiment bronchoalveolar fluid and supernatant of lung homogenate is taken for measurement of inflammatory mediators.
The lungs of female Wistar rats (weight 200–250 g; Harlan-Winkelmann, Borchen, Germany) are prepared after terminal i.p. anesthesia by 160 mg/kg pentobarbitural —Na (Merial Ltd, Halbermoos, Germany) and perfused as described by Uhlig and Wolin (1994), and by Uhlig and von Bethmann (1997). All equipment is obtained from Hugo Sachs Electronics (March-Hugstetten, Germany). […] As perfusion medium, a Krebs-Henseleit buffer (38° C.) containing 2% bovine serum albumin (Fraction V, Scrva. Heidelberg, Germany), 0.1% glucose (Riedel-de-Haën Inc., Seelze, Germany), and 0.3% HEPES (ICN Biomedicals Inc., Ohio, USA) is used. The total amount of recirculating buffer is 100 ml. The lungs are suspended by the trachea and ventilated by negative pressure ventilation (inspiratory pressure: −7 cm H2O, expiratory pressure: −2 cm H2O) with 80 breaths per minute resulting in a tidal volume of approximately 2 ml. Every 5 minutes, a deep inspiratory breath (−20 cm H2O) is performed. Artificial thorax chamber pressure is measured with a differential pressure transducer (Validyne DP 45-14), and an air flow velocity with a pneumotachograh tube (Fleisch Type 0000) connected to a differential pressure transducer (Validyne DP 45-15). The perfusate flow (Narcomatic RT-500) and the arterial and venous pressure (Statham P23BB) are continuously monitored. The pH of the perfusate before entering the lung is kept at 7.25 to 7.35 by automatic bubbling of the buffer with CO2 as soon as the pH exceeds this range. A weight transducer is integrated into the chamber lid which allows the continuous assessment of lung weight. Data are recorded on a Pentium II computer using the Mathlab Sofware package (Mathworks, Inc., Nattick Mass., USA). For lung mechanics, the data are analyzed by applying the following formula: P=1/C*VT+RLdV/dT
Where P is chamber pressure, C pulmonary compliance, VT tidal volume, and RL airway resistance. All lung physiology parameters were normalized to time point 0, i.e. after the end of the preconditioning perfusion of 40 minutes.

isolated rat lungs = assay: Isolated blood perfused flooded rat lung (weight, lung mechanics, PV curves, histology); conditions: pretreated lungs after flooding and 2 hours reperfusion
Protocol: Rats. For the ex vivo experiments, 31 Sprague-Dawley rats (300 to 350 g) were tracheotomized and mechanically ventilated (40% oxygen in air) under isoflurane anesthesia. The experimental protocol was reviewed and approved by the Ethics Committee for Animal Research and by the Veterinary Office of our institution. The femoral vessels were cannulated for blood sampling, fluid replacement, and continuous arterial blood pressure monitoring. Following anticoagulation (1.5 IU/g i.v. heparin), 20 ml of blood were withdrawn and replaced by an equal volume of dextran-40 (Macrodex 10% in normosaline) to serve as priming volume for the isolated perfusion circuit. The heart-lung block was prepared as described by Ma et al., 2000, weighed and assigned to one of four groups. […] The lungs were suspended, mechanically ventilated, and perfused at constant pressure with autologous blood as described by Ma et al., 2000.
An inspiratory and expiratory quasi-static pressure-volume (PV) curve was performed at the end of the 2-hour reperfusion period by inflating and then deflating the lungs at a constant rate (0.3 ml/sec) using an automated infusion pump. A sigh was applied in all groups every 15 minutes to minimize atelectasis formation. The blood pH was maintained between 7.3 and 7.5 and, if necessary, corrected with sodium bicarbonate 8.4% or a change of the inspired CO2 as required by the blood gas analysis. Every 30 minutes, a blood sample was collected for blood gas analysis as well as for hematocrit and electrolyte concentration.
Inclusion criteria. Immediately following the start of reperfusion, the preparation had to fulfill three technical inclusion criteria: • 1) left atrial pressure (LAP) 5-10 mmHg; • 2) peak airway pressure (AWP) <15 cmH2O; and • 3) pulmonary blood flow (PBF) >10 ml/min. […] The included lungs were then flooded with gentle intratracheal instillation of 2 ml normal saline and the recorded variables measured for 2 subsequent hours.
Histological analysis. Random lung samples were fixed for light and electron microscopy and analyzed by pathologists blinded to the lung's protocol group assignment.

[2] = test system: left lung of Fischer (F344) rats; assay: Rat model of lung reperfusion injury (warm ischemia and reperfusion); type: in vivo
Protocol: In a modification of the model of Ohno et al. (1993) male Fischer (F344) rats (200–250 g) undergo clamping of the left pulmonary artery, pulmonary vein and main bronchus for 36 minutes of warm ischemia. After reperfusion of the left lung, the right lung is occluded to assess the function of the left lung for 90 minutes. The peptide is given at 3 minutes after reperfusion by either instillation or intravenous injection via the subclavian vein.
• 1. Anaesthesia of the rat in a glass chamber, 4% Halothane and Oxygen 4/min. • 2. Intubation of the rat with a 1.8 mm catheter, • 3. Shaving the fur on the abdomen and left side of the animal. • 4. Ventilation via the tracheal tube 100/min, 2.5 ml 20% oxygen, Harvard Rodent Ventilator (Harvard Apparatus, South Natick, Mass.), PEEP 5 mm H2O. • 5. A left thoracotomy is carried out in the in 4th intercostal space. • 6. Dissection of the left lung hilar region. • 7. Microvascular clips are placed around the left pulmonary artery (PA), Pulmonary vein (PV) and left main bronchus (B) to induce warm ischemia of the left lung. Small circulation is still ongoing through the right lung. This is the start of the Warm Ischemia Time (WIT). • 8. Anaesthaesia is maintained with 2% Halothane, 40% Oxygen. • 9. A provisory Z suture is made to temporary close the thoracotomy and a gaze sponge is put on the animal to decrease warmth loss. • 10. Near the end of the WIT, a thoracophrenolaparatomy in the midline with thorough electrocaterisation. (two peans on the sternum). • 11. Putting 2-0 Softsilk on the trachea around the intubation tube. • 12. Dissection of the right hilar elements. • 13. Taking away microvascular clips from the left hilar elements. End of WIT of the left lung after 36 minutes. • 14. Putting microvascular clips on right PA and B. Small circulation only through left lung. Start developing of left oedema time (LLOT). • 15. After 3 minutes of LLOT: instillation of the drug in 0.5 ml of 0.9% saline solution (Baxter) or injection of the drug in 0.25–0.3 ml of 0.9% saline through the subclavian vein. • 16. After 6, 30, 60 and 90 minutes of LLOT, puncture of the Aortic Arch (AA) with needle for blood gas analysis in Radiometer ABL 700 Serie, (Denmark). • 17. After each puncture the AA puncture hole is pressed with a cotton swab. • 18. Blood gas analysis is taken every time from AA (the heart rate should be over 60). • 19. After the last blood gas analysis (90 minutes), both lungs are flushed via the PA with 20 ml of 0.9% saline at a pressure of 20 cm H2O. […] The heart-lung block is excised for storage under formaline or in the freezer awaiting immunohistopathological analysis. Alternatively, the lung can be excised without flushing to assess wet to dry ratio's. Results (FIG. 7)

[3] = test system: lung microvascular endothelial cells; assay: Whole-cell patch clamp, membrane conductance in lung microvascular endothelial cells; type: cell-based, mouse; conditions: 30 min preincubation at acidic pH (pH 6); TNF, mutTNF 100 ng/ml, peptides 100 μg/ml
From the text: Animals, cells and reagents. Male CBA/J or C57BL/6 mice, as well as male TNFR ½^0/0 C57BL/6 mice deficient in TNF receptors (Bruce et al., 1996) provided by H. Bluethmann, F. Hoffmann-La Roche, Basel, Switzerland, were used at the age of 8–10 weeks. Their care was in accordance with institutional guidelines. Lung microvascular endothelial cells were isolated from CBA/J mice and characterized as described (Jackson et al., 1990) using magnetic beads (Dynabeads M-450, Dynal, Oslo, Norway), covalently bound to a purified rat-anti-mouse PECAM-1 monoclonal antibody (donated by B. Imhof, University of Geneva). Microvascular lung endothelial cells were resuspended in DMEM containing 2 mM L-glutamine, 100 U/ml penicillin, […], 20% FCS, 40 U/ml heparin and […] endothelial cell growth supplement (Brunschwig Chemie, Basel, Switzerland). For patch clamp experiments, cells were plated onto 35×10 mm easy grip Petri dishes (Beckton Dickinson, Plymouth, UK), pre-coated with 0.2% gelatin (Sigma, Buchs, Switzerland). Resident peritoneal macrophages, isolated in ice cold RPMI containing antibiotics and 10 U/ml Heparin, were left to adhere onto 35×10 mm easy grip Petri dishes for 4 h, after which the non-adherent cells were removed. Cells were grown in RPMI 1640 containing 2 mM L-glutamine, 100 U/ml penicillin, 10 μpg/ml streptomycin and 10% fetal bovine serum (all from Gibco). For patch clamp, the macrophages ware used 24 h after isolation.
Electrophysiology. Cells were pretreated for 30 min with TNF, mutTNF and tip peptides at 37° C. in a buffer consisting of 145 mM NaCl, 3 mM KCl, 2mM CaCl2, 2mM MgCl2, 10 mM D-glucose, and 10mM Hepes, and pH-adjusted with NaOH to required value. Cells were then washed with the same buffer pH-adjusted at 7.3, and experiments were performed using the tight-seal, whole-cell recording technique. Currents were recorded with an Axopatch-200A amplifier (Axon Instrument Inc, Foster City, Calif., USA), low pass-filtered at 1 kHz. Digitalization and off-line analysis was performed using the WCP program (J. Dempster, Strathclyde Electrophysiology Software, Glasgow, UK). Patch pipettes were pulled from borosilicate glass and fire polished to have an open resistance of 3–5 MW with an internal solution containing […], 2 mM MgCl2, 10mM EGTA, 20 mM TEA-Cl, 10 mM D-glucose 10 mM Hepes, pH-adjusted to 7.3 with CsOH. Series resistances were kept under 10 MW. Capacitance and series resistance compensation were applied and set to 70%. All experiments were done at room temperature. Results are given as mean ±SEM, unless otherwise indicated. Analysis of variance was performed on currents and membrane conductance values, with post-hoc Dunn-Bonferroni test for significance of differences observed between two groups. A P value of 0.05 was considered significant.

[4] = measured 80 minutes after instillation

Molecule: CC(C)(C)NCC(O)c1cc(O)cc(O)c1 (centres unmarked) [Terbutaline, reference compound]
Weight loss of ex vivo instilled rat lung over 80 min ([1]; Terbutalin 1 mM alone, individual lungs): 1035 mg and 872 mg and 1219 mg and 1119 mg and 822 mg and 1075 mg and 675 mg and 730 mg and 1000 mg and 923 mg and 880 mg and 702 mg
Weight loss of ex vivo instilled rat lung over 100 min ([1]; Terbutaline 1 mM + Chitobiose 500 μg): 800 mg
Weight loss of ex vivo instilled rat lung over 100 min ([1]; Terbutaline 1 mM alone, individual lungs): 805 mg and 1223 mg and 1425 mg and 1370 mg
clearing alveolar fluid content ex vivo [1]: capable of clearing alveolar fluid content

endothelial flaps and epithelial blebs (electron microscopy) (isolated rat lungs): less evident
Molecule: CC(C)C[C@@H]1NC(=O)[C@H](CCC(=O)O)NC(=O)[C@H](Cc2c[nH]c3ccccc23)NC(=O)[C@@H]2CCCN2C(=O)[C@H](CCCCN)NC(=O)[C@H]([C@@H](C)O)NC(=O)CNC(=O)[C@@H](N)CSSC[C@@H](C(=O)O)NC(=O)[C@H](Cc2ccc(O)cc2)NC(=O)[C@H](C)NC(=O)[C@@H]2CCCN2C(=O)[C@H](CCCCN)NC(=O)[C@H](CCC(=O)O)NC(=O)[C@H](CC(=O)O)NC(=O)[C@@H]2CCCN2C(=O)CNC1=O [cyclic mu scrambl Tip, reference compound] (H-CGTKPWELGPDEKPAYC-OH; disulfide 1-17)

Molecule: CGQREAPAGAAAKPWYC (disulfide 1-17) [hum mut Tip, reference compound]
pO2 blood gas levels ([2]; 6 to 90 minutes of LLOT, cyclic hum Ltip 500 μg/kg to 5 μg/kg, hum mut Tip 500 μg/kg): followed completely the values seen in the control animals
gain in pO2 blood gas ([2]; iv application): no effect
clearing alveolar fluid content ex vivo [1]: inactive

Molecule: CGQRETPEGAEAKPWY (Biotin-CGQRETPEGAEAKPWY) [linear hum Ltip]
activity in fluid clearance [1, 4]: equally active
activity in fluid clearance ([1]; measuring for 100 minutes after instillation): less active
Weight loss of ex vivo instilled rat lung over 80 min ([1]; synthetic peptide 1000 μg/lung): 498 mg and 863 mg and 585 mg and 462 mg

Molecule: CTPEGAEC (Biotin-CTPEGAEC; cysteine pairing not given here; listed as Mus musculus) [STip]
whole cell current / membrane conductance [3]: failed to induce a voltage-dependent current
activity in fluid clearance [1, 4]: equally active
Weight loss of ex vivo instilled rat lung over 80 min ([1]; synthetic peptide 1000 μg/lung): 507 mg and 607 mg and 781 mg and 703 mg and 744 mg
Weight loss of ex vivo instilled rat lung over 100 min ([1]; synthetic peptide 1000 μg/lung): 836 mg and 535 mg and 684 mg and 891 mg and 849 mg

Molecule: GG-CCIPKDAPAGAALKPWYC [mutTip, reference compound]
whole cell current / membrane conductance [3]: inactive

Molecule: GG-COTKPWELOPDEKPAYC [scramblTip, reference compound]
whole cell current / membrane conductance [3]: inactive
